Laboratory results: patent publication US7109186B2 (Bristol-Myers Squibb Company, priority 2002, dated 2006)

Legend:
HIV-integrase = target: T1, HIV-integrase (Human immunodeficiency virus type 1 group M subtype B, UniProt P04585); test: HIV integrase SPA integration assay (biotin-labeled substrate DNA on streptavidin SPA beads, P33-labeled target DNA); type: biochemical; conditions: percent inhibition of HIV-integrase in the presence of 20 μM of compound
T1 construct: 0.26 ng of recombinant integrase was incubated with the beads for 90 min at 37 C
Method: For each reaction, 5 pmole of biotin labeled substrate DNA was bound to 100 ug of Streptavidin coated PVT SPA beads (Amersham Pharmacia Biotech). 0.26 ng of recombinant integrase was incubated with the beads for 90 min at 37 C. Unbound enzyme was removed by washing the complex followed by addition of inhibitors and 0.1 fmol of P33 labeled target DNA. Reaction was stopped by adding EDTA to a final concentration of 10 mM. Samples were counted in TopCountNXT (Packard) and the CPM was used as a measure of integration. Reaction condition was as described in A. Engelman and R. Craigie, J. Virol. 69, 5908–5911 (1995). The sequences of substrate and target DNA were described in Nucleic Acid Research 22, 1121–1122 (1994).

| SMILES | melting point | inhibition at 20 µM (HIV-integrase) |
| --- | --- | --- |
| CON(Cc1ccc(F)cc1)C(=O)C1=C(O)C(=O)N(C)C1 | 125 °C (dec.) | – |
| CN1CC(C(=O)N(C)Cc2ccc(C(F)(F)F)cc2)=C(O)C1=O | 126 to 128 °C | – |
| CON(Cc1ccc(C(F)(F)F)cc1)C(=O)C1=C(O)C(=O)N(C)C1 | 145 °C (dec.) | – |
| CON(Cc1ccc(C(F)(F)F)cc1)C(=O)C1=C(O)C(=O)N(CCN2CCOCC2)C1 | 119 °C (dec.) | – |
| CON(Cc1ccc(F)cc1C(F)(F)F)C(=O)C1=C(O)C(=O)N(C)C1 | 167 °C (dec.) | – |
| CN1CC(C(=O)N(C)CCCc2ccc(F)cc2)=C(O)C1=O | 129 °C (dec.) | – |
| CON(CCCc1ccc(Cl)c(Cl)c1)C(=O)C1=C(O)C(=O)N(C)C1 | 106 to 108 °C | – |
| CN(Cc1ccc(Cl)c(Cl)c1)C(=O)C1=C(O)C(=O)N(C2CC2)C1 [Compound 14, 1-Cyclopropyl-4-hydroxy-5-oxo-2,5-dihydro-1H-pyrrole-3-carboxylic acid (3,4-dichloro-benzyl)-methyl-amide] | 163 to 164 °C | 99.7% |
| CN(Cc1ccc(Cl)c(Cl)c1)C(=O)C1=C(O)C(=O)N(CCC(=O)O)C1 [Compound 18, 3-[4-[(3,4-dichloro-benzyl)-methyl-carbamoyl]-3-hydroxy-2-oxo-2,5-dihydro-pyrrol-1-yl]-propionic acid] | 183 to 184 °C | 99.9% |
| CN(Cc1ccc(Cl)c(Cl)c1)C(=O)C1=C(O)C(=O)N(CC(=O)O)C1 [Compound 20, {4-[(3,4-Dichloro-benzyl)-methyl-carbamoyl]-3-hydroxy-2-oxo-2,5-dihydro-pyrrol-1-yl}-acetic acid] | 178 to 180 °C | 99.9% |
| CN(Cc1ccc(Cl)c(Cl)c1)C(=O)C1=C(O)C(=O)N(CCC(=O)NCCC(=O)O)C1 [Compound 37, 3-(3-{4-[(3,4-Dichloro-benzyl)-methyl-carbamoyl]-3-hydroxy-2oxo-2,5-dihydro-pyrrol-1-yl}-propionylamino)-propionic acid] | – | 99.9% |
| CN(Cc1ccc(Cl)c(Cl)c1)C(=O)C1=C(O)C(=O)N(CCNC(=O)CCN2CCOCC2)C1 [Compound 38, 4-Hydroxy-1-[2-(3-morpholin-4-yl-propionylamino)-ethyl]-5-oxo-2,5-dihydro-1H-pyrrole-3-carboxylic acid (3,4-dichloro-benzyl)-methyl-amide] | – | 99.9% |
| CN(Cc1ccc(Cl)c(Cl)c1)C(=O)C1=C(O)C(=O)N(CCC(=O)NCC(=O)O)C1 [Compound 39, (3-{4-[(3,4-Dichloro-benzyl)-methyl-carbamoyl]-3-hydroxy-2-oxo-2,5-dihydro-pyrrol-1-yl}-propionylamino)-acetic acid] | – | 99.9% |
| CN(Cc1ccc(Cl)c(Cl)c1)C(=O)C1=C(O)C(=O)N(CCC(N)=O)C1 [Compound 40, 1-(2-Carbamoyl-ethyl)-4-hydroxy-5-oxo-2,5-dihydro-1H-pyrrole-3-carboxylic acid (3,4-dichloro-benzyl)-methyl-amide] | – | 99.9% |
| COC(=O)c1ccc(CN2CC(C(=O)N(C)Cc3ccc(Cl)c(Cl)c3)=C(O)C2=O)cc1 [Compound 41, 4-{4-[(3,4-Dichloro-benzyl)-methyl-carbamoyl]-3-hydroxy-2-oxo-2,5-dihydro-pyrrol-1-ylmethyl}-benzoic acid methyl ester] | – | 99.9% |
| CN(Cc1ccc(Cl)c(Cl)c1)C(=O)C1=C(O)C(=O)N(CCC#N)C1 [Compound 42, 1-(2-Cyano-ethyl)-4-hydroxy-5-oxo-2,5-dihydro-1H-pyrrole-3carboxylic acid (3,4-dichloro-benzyl)-methyl-amide] | – | 99.9% |
| CN(Cc1ccc(Cl)c(Cl)c1)C(=O)C1=C(O)C(=O)N(CCCN2CCOCC2)C1 [Compound 43, 4-Hydroxy-1-(3-morpholin-4-yl-propyl)-5-oxo-2,5-dihydro-1H-pyrrole-3-carboxylic acid (3,4-dichloro-benzyl)-methyl-amide] | – | 99.9% |
| CON(Cc1ccc(F)cc1)C(=O)C1=C(O)C(=O)N(CCN2CCOCC2)C1 [Compound 45, 4-Hydroxy-1-(2-morpholino-4-yl-ethyl)-5-oxo-2,5-dihydro-1H-pyrrole-3-carboxylic acid (4-fluoro-benzyl)-methoxy-amide] | – | 99.5% |

| SMILES | melting point | inhibition at 20 µM (HIV-integrase) |
| --- | --- | --- |
| CON(Cc1ccc(F)cc1)C(=O)C1=C(O)C(=O)N(CCN2CCNCC2)C1 [Compound 46, 4-Hydroxy-5-oxo-1-(2-piperazin-1-yl-ethyl)-2,5-dihydro-1H-pyrrole-3-carboxylic acid (4-fluoro-benzyl)-methoxy-amide] | – | 99.3% |
| CON(Cc1ccc(Cl)c(Cl)c1)C(=O)C1=C(O)C(=O)N(C)C1 [Compound 47, 4-Hydroxy-1-methyl-5-oxo-2,5-dihydro-1H-pyrrole-3-carboxylic acid (3,4-dichloro-benzyl)-methoxy-amide] | 149 °C | 99.9% |
| CON(Cc1cccc(F)c1)C(=O)C1=C(O)C(=O)N(C)C1 [Compound 49, 4-Hydroxy-1-methyl-5-oxo-2,5-dihydro-1H-pyrrole-3-carboxylic acid (3-fluoro-benzyl)-methoxy-amide] | 119 °C (dec.) | 98.5% |
| CON(Cc1ccccc1F)C(=O)C1=C(O)C(=O)N(C)C1 [Compound 50, 4-Hydroxy-1-methyl-5-oxo-2,5-dihydro-1H-pyrrole-3-carboxylic acid (2-fluoro-benzyl)-methoxy-amide] | 147 °C (dec.) | 92% |
| CON(Cc1ccc(Cl)cc1)C(=O)C1=C(O)C(=O)N(C)C1 [Compound 51, 4-Hydroxy-1-methyl-5-oxo-2,5-dihydro-1H-pyrrole-3-carboxylic acid (4-chloro-benzyl)-methoxy-amide] | 165 °C (dec.) | 99.9% |
| CON(CCc1ccc(F)cc1)C(=O)C1=C(O)C(=O)N(C)C1 [Compound 52, 4-Hydroxy-1-methyl-5-oxo-2,5-dihydro-1H-pyrrole-3-carboxylic acid [2-(4-fluoro-phenyl)-ethyl]-methoxy-amide] | 157 °C (dec.) | 86% |
| CCON(Cc1ccc(F)cc1)C(=O)C1=C(O)C(=O)N(C)C1 [Compound 53, 4-Hydroxy-1-methyl-5-oxo-2,5-dihydro-1H-pyrrole-3-carboxylic acid ethoxy-(4-fluoro-benzyl)-amide] | 113 to 114 °C | 99% |
| CON(Cc1ccc(F)c(F)c1)C(=O)C1=C(O)C(=O)N(C)C1 [Compound 54, 4-Hydroxy-1-methyl-5-oxo-2,5-dihydro-1H-pyrrole-3-carboxylic acid (3,4-difluoro-benzyl)-methoxy-amide] | 146 to 147 °C | 99.9% |
| COc1ccc(CN(OC)C(=O)C2=C(O)C(=O)N(C)C2)cc1 [Compound 55, 4-Hydroxy-1-methyl-5-oxo-2,5-dihydro-1H-pyrrole-3-carboxylic acid methoxy-(4-methoxy-benzyl)-amide] | 135 to 137 °C | 99.9% |
| CON(Cc1ccc(F)cc1F)C(=O)C1=C(O)C(=O)N(C)C1 [Compound 60, 4-Hydroxy-1-methyl-5-oxo-2,5-dihydro-1H-pyrrole-3-carboxylic acid (2,4-difluoro-benzyl)-methoxy-amide] | – | 99.7% |
| CON(Cc1ccc(F)c(C#N)c1)C(=O)C1=C(O)C(=O)N(C)C1 [Compound 61, 4-Hydroxy-1-methyl-5-oxo-2,5-dihydro-1H-pyrrole-3-carboxylic acid (3-cyano-4-fluoro-benzyl)-methoxy-amide] | – | 99.3% |
| CON(Cc1ccccc1OC(C)C)C(=O)C1=C(O)C(=O)N(C)C1 [Compound 66, 4-Hydroxy-1-methyl-5-oxo-2,5-dihydro-1H-pyrrole-3-carboxylic acid (2-isopropoxy)-methoxy-amide] | – | 99% |
| COC(=O)c1ccc(CN(OC)C(=O)C2=C(O)C(=O)N(C)C2)cc1 [Compound 67, 4-{[(4-Hydroxy-1-methyl-5-oxo-2,5-dihydro-1H-pyrrole-3-carbonyl)-methoxy-amino]-methyl}-benzoic acid methyl ester] | – | 96.5% |
| CON(Cc1ccc(C(=O)OC(C)(C)C)cc1)C(=O)C1=C(O)C(=O)N(C)C1 [Compound 68-A, 4-{[(4-Hydroxy-1-methyl-5-oxo-2,5-dihydro-1H-pyrrole-3-carbonyl)-methoxy-amino]-methyl}-benzoic acid tert-butyl ester] | – | 4.5% |
| CON(C(=O)C1=C(O)C(=O)N(C)C1)C(c1ccc(F)cc1)c1ccc(F)cc1 [Compound 73, 4-Hydroxy-1-methyl-5-oxo-2,5-dihydro-1H-pyrrole-3-carboxylic acid [bis-(4-fluoro-phenyl)-methyl]-methoxy-amide] | – | 10% |
| CN1CC(C(=O)N(Cc2ccc(F)cc2)Cc2ccc(F)cc2)=C(O)C1=O [Compound 76, 4-Hydroxy-1-methyl-5-oxo-2,5-dihydro-1H-pyrrole-3-carboxylic acid bis-(4-fluoro-benzyl)-amide] | – | 96% |
| CN1CC(C(=O)N(Cc2ccc(Cl)cc2)Cc2ccc(Cl)c(Cl)c2)=C(O)C1=O [Compound 77, 4-Hydroxy-1-methyl-5-oxo-2,5-dihydro-1H-pyrrole-3-carboxylic acid (4-chloro-benzyl)-(3,4-dichloro-benzyl)-amide] | – | 99.8% |
| CN1CC(C(=O)N(C)Cc2ccccc2)=C(O)C1=O [Compound 79, 4-Hydroxy-1-methyl-5-oxo-2,5-dihydro-1H-pyrrole-3-carboxylic acid benzyl-methyl-amide] | – | 92.4% |
